Experimental data published in US20030215817A1, “Modulation of gene expression in formation of fatty atherosclerotic lesions” (priority 2003, published 2003).
Structures can show the parent of a compound that is named as a salt.

Experiments:
[1] = test system: Rec1_20 (TTAC 210) mRNA; assay: quantified RT-PCR, Rec1_20; type: in vivo, rabbit; details: for Relative Abundance Rec1_20, 20 pg F: hypercholesterolemic plus lercanidipine racemate, eight weeks, H2 (normocholesterolemic)=1.0
Description: Nineteen of the isolated DST clones were further validated using RT-PCR analyses; the data are presented in FIGS. 6-24 and in Tables 5-23, below. For each DST examined, the optimal annealing temperature and reagent conditions were determined for the corresponding set of primers (see Table 25) based on results from a preliminary experiment. In eight separate reactions, each set of primers was assayed to find the optimal conditions by adjusting the following four parameters: primer concentration, dNTP concentration, MgCl2 concentration, and number of Taq polymerase units. Once optimal conditions were determined, each DST was run in duplicate multiple simultaneous reactions which usually included at least four dilutions of template (cDNA library), plus control reactions lacking template, and six sequential data points for numbers of cycles.
Reactions were performed using “Hot Start” PCR with the Clontech TaqStart antibody system (Cat. #5400-1). Each reaction contained 1 ml of the cDNA library dilution as template, determined amounts of AmpliTaq DNA polymerase (cat. #N808-0156), MgCl2, dNTPs (GibcoBRL cat. #10297-018), primer, and Clontech TaqStart Antibody in a 20 ml final reaction volume using 10×Taq buffer II (without MgCl2). Typically, a master mix containing all components except the template was prepared and aliquoted. Various templates were then added to these master mix samples and 20 ml volumes were subsequently dispensed into individual reaction tubes. At various times during the PCR run, tubes were removed sequentially on a predetermined schedule in order to quantitate expression of the target DST over a “window” of cycle times. After amplification, the samples were quantified via fluorimetry.
PCR was performed at annealing temperatures that were five degrees above the average melting temperature of each primer pair. For primers greater than 10 bases (in a 0.05M salt solution), melting temperature was calculated using the following formula: Tm=59.9+41[% GC]−[675/Primer Length], where %GC is the decimal value. Following determination of the average melting temperature of the primer pair, the annealing temperature was determined by adding five degrees to the average melting temperature. PCR was performed using the following program: 1) 95 degrees Celsius, 3 minutes; 2) 95 degrees Celsius, 30 seconds; 3) TM+5 degrees Celsius, 30 seconds; 4) 72 degrees Celsius, for a time dependent on target length at 16 bp/second; 5) repeat steps 2-4 33 more cycles; 6) 72 degrees Celsius, 3 minutes; 7) 14 degrees Celsius, forever.
Following temperature cycling, 2 ml of the PCR reaction was added to 140 ml of a 1:280 dilution of PicoGreen (Molecular Probes cat. #P-11495 (10×100 ml)) in TE pH 7.5 in a 96-well Costar UV microtiter plate (Fisher cat. #07-200623). The samples were mixed gently for 1.5 minutes and allowed to equilibrate at room temperature in the dark for 15 minutes. The concentration of the PCR products was quantified by fluorimetry using a PerSeptive Biosystems CytoFluor series 4000 multi-well plate reader.
Background fluorescence was determined by using duplicate control samples that were cycled with all reaction components except the template. The mean value from these duplicate background control samples was subtracted from the corresponding experimental values prior to analyzing results. The sensitivity of the PicoGreen dsDNA assay is reported to be 250 pg/ml (50 pg dsDNA in a […] assay volume) using a fluorescence microplate reader such as was used in these measurements. […]

[2] = in vivo studies (Soma 1998); cited from earlier work
[3] = preliminary kinetic studies: plasma levels after subcutaneous administration; type: in vivo; details: rabbit, sc, rabbits, after 7 days from the administration
Description: The doses of lercanidipine used were determined from preliminary kinetic studies.

[4] = (R)-enantiomer compared with the other enantiomer of lercanidipine; cited from earlier work

Row | concentration at 7 days ([3]; subcutaneous administration of 1 mg/kg) [ng/g] | concentration at 7 days ([3]; subcutaneous administration of 3 mg/kg) [ng/g] | Compound | Relative Abundance Rec1_20, 20 pg F ([1]; cycle 26) | Relative Abundance Rec1_20, 20 pg F ([1]; cycle 28) | Relative Abundance Rec1_20, 20 pg F ([1]; cycle 30) | Relative Abundance Rec1_20, 20 pg F ([1]; cycle 32) | Relative Abundance Rec1_20, 20 pg F ([1]; cycle 34) | expression of Rec1_20 at 8 weeks (RT-PCR study), in words ([1]; hypercholesterolemic animals receiving lercanidipine) | carotid intimal hyperplasia [2] | effectiveness in lowering blood pressure, less effective [4]
1 | 500 | 3200 | COC(=O)C1=C(C)NC(C)=C(C(=O)OC(C)(C)CN(C)CCC(c2ccccc2)c2ccccc2)C1c1cccc([N+](=O)[O-])c1 (racemic) [lercanidipine, lercanidipine hydrochloride] | 0.0 | 0.1 | 0.2 | 0.2 | 0.2 | decreased | inhibit | 
2 |  |  | COC(=O)C1=C(C)NC(C)=C(C(=O)OC(C)(C)CN(C)CCC(c2ccccc2)c2ccccc2)[C@@H]1c1cccc([N+](=O)[O-])c1.Cl (single isomer, unassigned) [(R)-lercanidipine] |  |  |  |  |  |  |  | 2-3 orders of magnitude
